Activity calls are given as the source filed them. No cut-off for these calls is given here.

4 molecules from ChEMBL document CHEMBL1287770, “A protected l-bromophosphonomethylphenylalanine amino acid derivative (BrPmp) for synthesis of irreversible protein tyrosine phosphatase inhibitors” (Bioorg Med Chem, 2010) can be followed below.

In data set [1] the target is T1, Receptor-type tyrosine-protein phosphatase C (Homo sapiens, UniProt P08575).
T1 sequence (P08575 whole entry): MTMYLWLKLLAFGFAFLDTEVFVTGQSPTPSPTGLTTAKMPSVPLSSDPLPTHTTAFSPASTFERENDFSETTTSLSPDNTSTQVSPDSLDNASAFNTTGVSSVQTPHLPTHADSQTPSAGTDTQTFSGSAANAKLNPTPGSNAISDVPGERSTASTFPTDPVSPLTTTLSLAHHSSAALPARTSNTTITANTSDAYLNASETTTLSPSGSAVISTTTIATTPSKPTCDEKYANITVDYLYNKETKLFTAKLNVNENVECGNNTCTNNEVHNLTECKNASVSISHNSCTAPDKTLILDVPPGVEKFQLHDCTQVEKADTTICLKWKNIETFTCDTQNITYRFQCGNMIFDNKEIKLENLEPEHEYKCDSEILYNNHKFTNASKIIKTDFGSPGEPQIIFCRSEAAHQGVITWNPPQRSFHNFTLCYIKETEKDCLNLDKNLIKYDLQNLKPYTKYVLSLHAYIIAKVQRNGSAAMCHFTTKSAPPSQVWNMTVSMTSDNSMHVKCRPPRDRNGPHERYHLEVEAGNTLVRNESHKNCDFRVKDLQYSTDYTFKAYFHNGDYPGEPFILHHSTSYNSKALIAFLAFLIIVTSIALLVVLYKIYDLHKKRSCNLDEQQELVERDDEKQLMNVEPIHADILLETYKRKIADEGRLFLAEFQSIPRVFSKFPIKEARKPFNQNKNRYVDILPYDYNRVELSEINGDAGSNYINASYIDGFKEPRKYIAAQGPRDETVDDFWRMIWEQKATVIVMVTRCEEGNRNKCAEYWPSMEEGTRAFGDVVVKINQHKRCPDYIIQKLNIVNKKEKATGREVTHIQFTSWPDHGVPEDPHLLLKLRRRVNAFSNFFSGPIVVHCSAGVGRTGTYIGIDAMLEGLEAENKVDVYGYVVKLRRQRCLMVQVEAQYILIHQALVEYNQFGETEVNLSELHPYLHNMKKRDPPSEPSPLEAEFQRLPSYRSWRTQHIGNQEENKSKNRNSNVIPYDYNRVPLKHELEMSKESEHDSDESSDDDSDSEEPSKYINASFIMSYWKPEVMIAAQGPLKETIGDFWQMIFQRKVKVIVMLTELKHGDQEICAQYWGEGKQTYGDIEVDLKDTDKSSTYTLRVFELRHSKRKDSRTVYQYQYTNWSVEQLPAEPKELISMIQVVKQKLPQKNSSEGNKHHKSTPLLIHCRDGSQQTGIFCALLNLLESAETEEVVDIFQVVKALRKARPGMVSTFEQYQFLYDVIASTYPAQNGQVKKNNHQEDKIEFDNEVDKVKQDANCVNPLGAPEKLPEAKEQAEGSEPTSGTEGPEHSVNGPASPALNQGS
Nature of the data set: Inhibition of human CD45-cytoplasmic domain at 1500 uM after 10 mins by Kitz-Wilson analysis.

For data set [2], the target named is T2, Receptor-type tyrosine-protein phosphatase C (Homo sapiens) (UniProt P08575).
T2 sequence (whole entry): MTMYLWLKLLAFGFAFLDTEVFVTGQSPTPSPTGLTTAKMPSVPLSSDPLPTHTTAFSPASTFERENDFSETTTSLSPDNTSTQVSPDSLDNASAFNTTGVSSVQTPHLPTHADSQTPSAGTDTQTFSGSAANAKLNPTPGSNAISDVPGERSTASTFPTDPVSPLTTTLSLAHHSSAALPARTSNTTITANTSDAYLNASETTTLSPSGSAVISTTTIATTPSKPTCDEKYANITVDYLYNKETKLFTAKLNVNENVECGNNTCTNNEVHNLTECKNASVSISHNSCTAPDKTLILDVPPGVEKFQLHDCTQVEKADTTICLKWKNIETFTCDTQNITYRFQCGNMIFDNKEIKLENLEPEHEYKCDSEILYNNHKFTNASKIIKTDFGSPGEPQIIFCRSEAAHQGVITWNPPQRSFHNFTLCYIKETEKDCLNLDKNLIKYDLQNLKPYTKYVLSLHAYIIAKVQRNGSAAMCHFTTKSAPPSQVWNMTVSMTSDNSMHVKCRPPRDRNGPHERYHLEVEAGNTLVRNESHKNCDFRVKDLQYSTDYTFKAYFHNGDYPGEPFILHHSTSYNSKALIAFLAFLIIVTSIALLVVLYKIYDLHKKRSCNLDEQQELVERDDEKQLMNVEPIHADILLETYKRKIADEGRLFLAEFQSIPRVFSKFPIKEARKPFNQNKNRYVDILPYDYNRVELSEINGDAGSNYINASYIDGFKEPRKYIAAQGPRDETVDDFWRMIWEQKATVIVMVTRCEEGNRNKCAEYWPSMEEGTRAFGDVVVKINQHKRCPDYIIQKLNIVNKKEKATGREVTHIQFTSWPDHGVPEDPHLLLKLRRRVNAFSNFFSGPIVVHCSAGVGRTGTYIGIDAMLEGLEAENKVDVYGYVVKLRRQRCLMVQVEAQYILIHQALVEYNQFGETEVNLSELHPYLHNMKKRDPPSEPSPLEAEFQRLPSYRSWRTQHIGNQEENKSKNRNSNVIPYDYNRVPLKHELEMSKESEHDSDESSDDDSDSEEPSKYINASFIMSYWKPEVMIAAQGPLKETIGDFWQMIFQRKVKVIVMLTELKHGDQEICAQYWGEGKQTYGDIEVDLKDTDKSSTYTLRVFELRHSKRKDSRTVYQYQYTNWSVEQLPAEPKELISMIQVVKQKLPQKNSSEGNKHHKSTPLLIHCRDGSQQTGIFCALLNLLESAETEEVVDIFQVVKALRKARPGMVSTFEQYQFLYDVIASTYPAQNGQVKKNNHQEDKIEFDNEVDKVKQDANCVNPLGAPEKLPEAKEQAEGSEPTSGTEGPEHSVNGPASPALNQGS
Nature of the data set: Competitive inhibition of human CD45-cytoplasmic domain after 10 mins.

Data set [3] has as its target T1, Receptor-type tyrosine-protein phosphatase C. The experiment in a line: Inhibition of human CD45-cytoplasmic domain at 150 uM after 10 mins by Kitz-Wilson analysis.
Data set [4] addresses T2, Receptor-type tyrosine-protein phosphatase C (Homo sapiens). The experiment in a line: Competitive inhibition of human CD45-cytoplasmic domain. To be noted: TDE = time-dependent effect.
Compound in data set [5]: N[C@@H](Cc1ccc(C(Br)P(=O)(O)O)cc1)C(=O)O
Nature of the data set: Inhibition of human CD45-cytoplasmic domain at 150 uM after 10 mins by Michaelis-Menten equation analysis.

Compound in data set [6]: CC(C)C[C@H](NC(=O)[C@H](Cc1ccc(C(Br)P(=O)(O)O)cc1)NC(=O)[C@@H](N)CC(=O)O)C(=O)O
Nature of the data set: Inhibition of human CD45-cytoplasmic domain at 35 uM after 10 mins by Michaelis-Menten equation analysis.

In the case of `O=P(O)(O)C(Br)c1ccccc1` (configuration not stated) [[BROMO(PHENYL)METHYL]PHOSPHONIC ACID], the Ki result in data set [1] is recorded as “Not Active”.

`CC(C)C[C@H](NC(=O)[C@H](Cc1ccc(C(Br)P(=O)(O)O)cc1)NC(=O)[C@@H](N)CC(=O)O)C(=O)O` (some centres not stated): the inhibition result in data set [2] is “inactive”.

Turning to `N[C@@H](Cc1ccc(C(Br)P(=O)(O)O)cc1)C(=O)O` (some centres not stated), the Ki in data set [3] is 40 µM. In data set [2], the inhibition entry is “inactive”. Further, in data set [4], the inhibition result is “tde”.

B1: Receptor-type tyrosine-protein phosphatase C (Homo sapiens), P08575 (protein)
chain: MTMYLWLKLLAFGFAFLDTEVFVTGQSPTPSPTGLTTAKMPSVPLSSDPLPTHTTAFSPASTFERENDFSETTTSLSPDNTSTQVSPDSLDNASAFNTTGVSSVQTPHLPTHADSQTPSAGTDTQTFSGSAANAKLNPTPGSNAISDVPGERSTASTFPTDPVSPLTTTLSLAHHSSAALPARTSNTTITANTSDAYLNASETTTLSPSGSAVISTTTIATTPSKPTCDEKYANITVDYLYNKETKLFTAKLNVNENVECGNNTCTNNEVHNLTECKNASVSISHNSCTAPDKTLILDVPPGVEKFQLHDCTQVEKADTTICLKWKNIETFTCDTQNITYRFQCGNMIFDNKEIKLENLEPEHEYKCDSEILYNNHKFTNASKIIKTDFGSPGEPQIIFCRSEAAHQGVITWNPPQRSFHNFTLCYIKETEKDCLNLDKNLIKYDLQNLKPYTKYVLSLHAYIIAKVQRNGSAAMCHFTTKSAPPSQVWNMTVSMTSDNSMHVKCRPPRDRNGPHERYHLEVEAGNTLVRNESHKNCDFRVKDLQYSTDYTFKAYFHNGDYPGEPFILHHSTSYNSKALIAFLAFLIIVTSIALLVVLYKIYDLHKKRSCNLDEQQELVERDDEKQLMNVEPIHADILLETYKRKIADEGRLFLAEFQSIPRVFSKFPIKEARKPFNQNKNRYVDILPYDYNRVELSEINGDAGSNYINASYIDGFKEPRKYIAAQGPRDETVDDFWRMIWEQKATVIVMVTRCEEGNRNKCAEYWPSMEEGTRAFGDVVVKINQHKRCPDYIIQKLNIVNKKEKATGREVTHIQFTSWPDHGVPEDPHLLLKLRRRVNAFSNFFSGPIVVHCSAGVGRTGTYIGIDAMLEGLEAENKVDVYGYVVKLRRQRCLMVQVEAQYILIHQALVEYNQFGETEVNLSELHPYLHNMKKRDPPSEPSPLEAEFQRLPSYRSWRTQHIGNQEENKSKNRNSNVIPYDYNRVPLKHELEMSKESEHDSDESSDDDSDSEEPSKYINASFIMSYWKPEVMIAAQGPLKETIGDFWQMIFQRKVKVIVMLTELKHGDQEICAQYWGEGKQTYGDIEVDLKDTDKSSTYTLRVFELRHSKRKDSRTVYQYQYTNWSVEQLPAEPKELISMIQVVKQKLPQKNSSEGNKHHKSTPLLIHCRDGSQQTGIFCALLNLLESAETEEVVDIFQVVKALRKARPGMVSTFEQYQFLYDVIASTYPAQNGQVKKNNHQEDKIEFDNEVDKVKQDANCVNPLGAPEKLPEAKEQAEGSEPTSGTEGPEHSVNGPASPALNQGS
Turning to B1, the Km in data set [5] and in data set [6] was 141 µM in each case.

A word on the Ki: it is a dissociation constant, usually derived from enzyme kinetics or from competition with a known ligand. Low values mean a stronger hold on the target, high ones a looser hold on the target. The Km is the substrate concentration at which the rate is half of its maximum.
